Assay results reported in patent US20250002972A1, “METHOD FOR MEASURING SOMATIC DNA MUTATION AND DNA DAMAGE PROFILES AND A […] SUITABLE THEREFORE” (Albert Einstein College of Medicine, priority 2021, published 2025).
Where “and” joins values, the source holds several entries; their conditions need not be identical. Equal entries are not always repeated.

Columns and labels:
IMR90 cells = assay: Cell death of IMR90 cells at the ENU doses used; format: cell-based, human; conditions: sub-lethal doses of ENU (25 and 50 μg/ml)
[1] = test system: Human normal lung IMR90 fibroblasts; assay: SMM-Seq detection of induced somatic SNVs in IMR90 cells treated with ENU; format: cell-based; conditions: for sSNVs frq / mutation spectra: CA count / mutation spectra: CG count / mutation spectra: CT count / mutation spectra: TA count / mutation spectra: TC count / mutation spectra: TG count: 72 hours; for sSNVs frq / sSNVs count: single biological replicate; for sSNVs frq: variants / qualified positions (SNV/1 Mb); for mutation spectra: CA count / mutation spectra: CG count / mutation spectra: CT count / mutation spectra: TA count / mutation spectra: TC count / mutation spectra: TG count: single replicate; for sSNVs count: harvested 72 hours after ENU
Protocol: Human normal lung IMR90 fibroblasts were maintained in 10% CO2 and 3% O2 atmosphere at 37° C. in DMEM (GIBCO, Grand Island, NY, USA) supplemented with 10% FBS (GIBCO). Twenty-four hours after cell seeding the culturing media was changed for media containing different doses of ENU. Cells were harvested 72 hours after ENU was applied. Complete media supplemented with ENU (SIGMA, San Louis, MO, USA) was prepared immediately before application from stock solution (100 mg/ml in 100% ethyl alcohol). Control cells were cultured in the presence of the vehicle only.
DNA from fibroblasts and hepatocytes was isolated using Quick-gDNA™ Blood MiniPrep (Zymo Research Corporation, Irvine, CA, USA) according to the manufacturer instructions and quantified using QUBIT kit (ThermoFisher Scientific, USA).
Genomic DNA was first fragmented by double digestion with restriction endonucleases AluI and MluCI (NEB, USA), overnight at 37° C. After purification using 1.5×AMPure XP beads (Beckman Coulter, USA) the fragmented DNA was further processed using NEBNext Ultra II DNA Library Prep Kit for Illumina (NEB). The adapter provided with the kit was replaced with custom adapter P5_HP6N. After double sided size-selection using AMPure XP beads (Beckman Coulter), resulting dumbbell-like product was quantified with QUBIT kit (ThermoFisher) and analyzed on 2100 Bioanalyzer instrument with High Sensitivity DNA kit (Agilent, USA). To prepare P5_HP6N adapter 86 μl of 10 μM solution of oligonucleotide 5′-TCTTC TACAGT NNNNNN AGATCG GAAGAG CACACG TCTGAA CTCCAG TC/ideoxyU/ACACTC TTTCCC TACACG ACGCTC TTCCGA TCT-3′ (IDT, USA) in 0.1×TE buffer was first exposed to 95° C. for 5′ followed by 37° C. for 5′ to form a hairpin. Next, to fill-in the extending 5′-end the self-annealed oligonucleotide was supplemented with 10 μl of Cutsmart buffer (NEB), 2 μl of 10 mM dNTPs mix (NEB) and 10 U of Klenow Fragment (3′→5′ exo-) (NEB) and incubated at 37° C. for 30′. After purification with QIAquick Nucleotide Removal Kit (QIAGEN, USA), the hairpins were digested with 10U of HpyCH4III (NEB) for 1 hour at 37° C., then purified again with QIAquick Nucleotide Removal Kit (QIAGEN) and eluted with 100 μl of EB to obtain ready to use adapter solution.
Next, for SMM sequencing library preparation samples were diluted based on assessed molar concentration. Assuming 150PE sequencing mode and 30 Gb of data per sample, the dilution coefficient (D) was calculated using the formula D=M*NA/1025, where M—sample concentration (pM); NA—Avogadro constant. Next, 1 μl of diluted sample was used as a template in pulse-RCA reaction. The pulse-RCA was performed in 20 μl reaction containing 1 μl of diluted sample, 1 μl of P5-RCA oligo (5′-[…]-3′), 25U (0.5 μl) of SD polymerase HS (BIORON Diagnostics GmbH, Germany), 2 μl of SD polymerase buffer, 1 μl of 10 mM dNTPs mix (NEB), 0.6 μl of 100 mM MgCl2, and 13.9 μl of water. The pulse-RCA program was set as follows: 92° C. for 2′ (1); 92° C. for 30″ (2); 60° C. for 30″ (3); 65° C. for 150″ (4); go to (3) 9 times; hold at 4° C. Product of amplification reaction was purified with […] AMPure XP beads and resuspended in 23 μl TE buffer. The entire volume of RC amplification was PCR amplified in 50 μl reaction volume containing 23 μl of RCA product, 25 μl of NEBNext Ultra II Q5 Master Mix and 1 μl of P5 and P7 dual index oligos. The PCR program was set as follows: 98° C. for 30″ (1); 98° C. for 10″ (2); 65° C. for 75″ (3); go to (2) 8 times (4); 65° C. for 5′ (5); 4° C. forever. The PCR product was purified with 0.7×AMPure XP beads and resuspended in 30 μl of TE buffer. After quantification with Qubit, samples were pooled and sequenced on Illumina NovaSeq instrument using 150 paired-end mode.
Conventional sequencing library was prepared by PCR amplification of adapter ligated samples in 30 μl reaction volume containing 11 μl of undiluted ligated sample, 2U of USER enzyme (NEB) 15 μl of NEBNext Ultra II Q5 Master Mix and 1 μl of P5 and P7 dual index oligos. […]

[2] = test system: human primary mammary cells; assay: SMM-SV somatic structural variant (SV) frequency after bleomycin; format: cell-based; conditions: two different doses of bleomycin, SMM-SV (FIG. 9C)
Excerpt: As explained, SMM is capable of identifying SNVs and small indels, but not SVs. This is due to the overwhelming amount of chimeric DNA fragments created during library construction. For SMM-seq and other single-molecule assays the process of linking DNA fragments to the sequencing adapters also results in random ligation of DNA fragments to each other. The resulting chimeric sequences are not distinguishable from true SVs since both strands are identical and represent the same SV (FIG. 9A). To address this problem, we used transposase-mediated tagmentation, i.e., the initial step in library preparation where high molecular weight DNA is cleaved and tagged for analysis. While commonly used in library preparation, we used it here in a different, unexpected way. Indeed, as commonly used tagmentation generates priming sites for subsequent PCR which in turn is prone to produce artificial chimeras, giving a similar problem as other approaches. […] To validate SMM-SV we evaluated somatic SV frequency in human primary mammary cells treated with two different doses of bleomycin, a potent […] known to induce somatic SVs. […]

[3] = Cond E25 (ENU 25 μg/ml), IMR90 cells
[4] = Cond E50 (ENU 50 μg/ml), IMR90 cells
[5] = IMR90 cells upon ENU treatment, mutational spectra (FIG. 2C)

For `CCN(N=O)C(N)=O` [ENU, N-ethyl-N-nitrosourea], the cell death (IMR90 cells) was “do not cause any noticeable cell death”, the sSNVs frq [1, 3] was 0.411 and 0.3226 and 0.3595 and the “mutation spectra: CA count” value [1, 3] was 19 and 16 and 12. The “mutation spectra: CG count” value [1, 3] was 7 and 8 and 4, the “mutation spectra: CT count” value [1, 3] was 10 (2×) and 11 and the “mutation spectra: TA count” value [1, 3] was 13 and 10 and 16. For the same compound, the “mutation spectra: TC count” value [1, 3] was 18 and 22 and 20, the “mutation spectra: TG count” value [1, 3] was 9 and 12 and 7 and the sSNVs count [1, 3] was 76 and 78 and 70. For the same compound, the sSNVs frq [1, 4] was 0.571 and 0.5406, the “mutation spectra: CA count” value [1, 4] was 24 and 16 and the “mutation spectra: CG count” value [1, 4] was 2 and 6. The “mutation spectra: CT count” value [1, 4] was 32 and 16, the “mutation spectra: TA count” value [1, 4] was 38 and 20 and the “mutation spectra: TC count” value [1, 4] was 28 and 23. The “mutation spectra: TG count” value [1, 4] was 17 and 9, the sSNVs count [1, 4] was 141 and 90 and the “increase of mutation frequency versus control” value ([1]; ENU 50 μg/ml, IMR90 cells) was “more than 2 fold”. The mutation frequency ([1]; ENU 50 μg/ml, IMR90 cells, average±SD of three biological replicates, control 0.21±0.02, p=9.7*10-5) was 0.54±0.03 SNV/1 Mb, the “relative representation of AT/CG mutations versus untreated control cells” value [1, 5] was “more than 2 times” and the “relative representation of AT/TA mutations versus untreated control cells” value [1, 5] was “more than 2 times”.

bleomycin was tested, and the “somatic SV frequency” value [2] was “induced SVs in a dose-dependent manner”.
